Data: ChEMBL document CHEMBL1126228, “2,3:18,19-dioxidosqualene: synthesis and activity as a potent inhibitor of 2,3-oxidosqualene-lanosterol cyclase in rat liver microsomes” (Bioorg Med Chem Lett, 1992)

Molecular target: T1, Lanosterol synthase (Rattus norvegicus, UniProt P48450)
T1 sequence (P48450 whole entry): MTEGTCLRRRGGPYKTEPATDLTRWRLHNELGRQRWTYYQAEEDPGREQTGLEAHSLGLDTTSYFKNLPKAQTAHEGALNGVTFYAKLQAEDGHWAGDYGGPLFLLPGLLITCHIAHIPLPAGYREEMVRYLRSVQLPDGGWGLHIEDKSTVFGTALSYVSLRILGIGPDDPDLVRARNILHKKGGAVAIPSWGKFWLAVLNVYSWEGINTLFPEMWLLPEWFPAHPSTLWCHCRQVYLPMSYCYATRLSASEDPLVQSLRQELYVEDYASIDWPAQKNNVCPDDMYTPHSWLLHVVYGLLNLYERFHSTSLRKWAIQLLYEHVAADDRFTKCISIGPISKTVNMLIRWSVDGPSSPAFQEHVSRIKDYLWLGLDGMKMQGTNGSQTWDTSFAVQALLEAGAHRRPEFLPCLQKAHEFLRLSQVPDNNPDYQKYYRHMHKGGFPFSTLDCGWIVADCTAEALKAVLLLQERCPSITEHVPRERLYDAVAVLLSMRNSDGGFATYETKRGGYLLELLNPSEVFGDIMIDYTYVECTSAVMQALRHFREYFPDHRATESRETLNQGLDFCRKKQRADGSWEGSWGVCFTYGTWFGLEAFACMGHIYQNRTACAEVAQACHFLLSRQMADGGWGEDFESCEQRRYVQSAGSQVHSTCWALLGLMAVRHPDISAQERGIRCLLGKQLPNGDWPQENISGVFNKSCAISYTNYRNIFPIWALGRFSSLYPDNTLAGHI
Assay: Compound was evaluated for inhibitory activity against 2,3-oxidosqualene-lanosterol cyclase in rat liver microsomes
Parameters: species or system Microsome

First: C/C(=C\CC/C=C(\C)CC/C=C(\C)CCC1OC1(C)C)CC/C=C(\C)CCC1OC1(C)C (stereo not drawn)
Second: CC(C)=CCCC1(C)OC1CC/C(C)=C/CC/C=C(\C)CC/C=C(\C)CCC1OC1(C)C (stereo not drawn)
The IC50 of the first is 1300-fold higher: 142 µM for the first, 0.11 µM for the second.

Compound `CC(C)=CCC/C(C)=C/CC/C(C)=C/CC/C=C(\C)CCC1OC1(C)CCC=C(C)C` (stereo not drawn) has an IC50 of 83.5 µM.
